Reference: PMC8954540, “A New Class of PSMA-617-Based Hybrid Molecules for Preoperative Imaging and Intraoperative Fluorescence Navigation of Prostate Cancer” (Pharmaceuticals, 2022)

Legend:
[1] = target: T1, PSMA (Homo sapiens, UniProt Q04609); test: Competitive cell binding assay (radioligand 68Ga-PSMA-10); conditions: free ligands, mean ± SD, n = 3
T1 construct: LNCaP cells (CRL-1740; ATCC; PSMA-positive); host or cells: LNCaP cells
Protocol: (§1) LNCaP cells (CRL-1740; ATCC; PSMA-positive) and PC-3 cells (CRL-1435; ATCC; PSMA-negative) were cultured in RPMI medium (Thermo Fisher Scientific, Waltham, MA, USA) supplemented with 10% fetal calf serum and 2 mmol/L L-glutamine (all from (Thermo Fisher Scientific, Waltham, MA, USA) ) at 37 °C in humidified air with 5% CO2. Cells were harvested using trypsin-ethylenediaminetetraacetic acid (trypsin-EDTA; 0.25% trypsin, 0.02% EDTA, Invitrogen, Waltham, MA, USA). Cell line authentication was regularly performed. Binding affinities and internalization profiles of the ^68Ga-labeled compounds were determined in competitive cell binding assays and internalization experiments as described previously.

[2] = tested on: PC-3 cells; test: Confocal fluorescence imaging, PSMA-negative cells; type: cell-based; conditions: PSMA-negative PC-3 cells, 50 nmol/L
Protocol: (§2) For confocal microscopy sample preparation, 10^5 cells/well were seeded in poly-L-lysine (Sigma-Aldrich, Darmstadt, Germany) coated 4-well chambered coverslips (Nunc Lab-Tek II chambered coverglasses, Thermo Fisher Scientific, Waltham, MA, USA, live cell imaging) or on poly-L-lysine (Sigma-Aldrich, Darmstadt, Germany) coated #1 coverslips (15 mm diameter, fixed cell imaging) and kept for 48 h at 37 °C in humidified air with 5% CO2. Subsequently, cells were incubated with 50 nmol/L PSMA-927in RPMI for 5/15/30/45/60 min at 37 °C in humidified air with 5% CO2. […]
(§3) All confocal data were acquired with a custom-built STED system similar to the one published by Gorlitz et al.. […] Laser powers were measured in front of the microscope body. […]
(§4) The integrated fluorescence intensity was extracted with a custom-written ImageJ routine. […] Multiplying this mask with the corresponding raw image generates an output image with which the integrated fluorescence intensity can be evaluated exclusively in the signal-carrying parts of the raw image without summing up background.

[3] = tested on: LNCaP cells; test: Specific cell surface binding and internalization of 68Ga-labeled compounds; type: cell-based
Protocol: as §1

[4] = tested on: LNCaP cells; test: Cytotoxicity study by holographic time-lapse imaging; type: cell-based; conditions: 100 nmol/L, constant exposure for 48 h
Protocol: Potential cytotoxicity of PSMA-927 was assessed by analyzing the frequency of LNCaP cell division and the length of the LNCaP cell cycle via holographic time-lapse imaging. Cells were seeded in lumox® 24-well plates (Sarstedt, Nümbrecht, Germany) 48 h prior to the experiment and kept at 37 °C and 5% CO2. Imaging was performed with a HoloMonitor® M4 cytometer (PHI AB, Lund, Schweden) for a total period of 48 h at 37 °C and 5% CO2 with 15 min between image captures. Cell proliferation was followed in absence and in presence of 100 nmol/L PSMA-927. Data analysis was performed with the AppSuite software including cell segmentation, tracking of cells, identification of dividing cells, confluency measurement, and cell counting.

[5] = Spectral properties (absorption and emission); type: physicochemical; conditions: 10 μM in PBS (pH 7.4)
Protocol: Absorbance was measured with a Varian Cary 500 UV-VIS NIR Spectrophotometer (Agilent, Santa Clara, CA, USA) equipped with the software Cary 500 (EPROM Version 8.01, Agilent, Santa Clara, CA, USA) in the 200–1200 nm interval. Fluorescence emission was measured with a Varian Cary Eclipse Fluorescence-Spectrophotometer (Agilent, Santa Clara, CA, USA) equipped with the software Cary Eclipse (Version 1.1, Agilent, Santa Clara, CA, USA) with excitation at 710 nm in the 720–900 nm interval. PSMA-927 was diluted to 10 μM in PBS (pH 7.4) and measured in standard 1 cm quartz cuvettes.

[6] = tested on: LNCaP cells; test: Confocal fluorescence imaging, PSMA-positive cells; type: cell-based; conditions: 50 nmol/L, 60 min of internalization
Protocol: as §2, §3, §4

[7] = Lipophilicity, logD at pH 7.4 in n-octanol/PBS; type: physicochemical; conditions: 68Ga-labeled ligand
Protocol: The synthesis was performed according to previously published protocols. Details on synthesis and analytical data of the compounds are provided in the Supplementary Materials (Compound Synthesis and Analytical Characterization). […] Using 30% NaOH (Sigma-Aldrich, Darmstadt, Germany) and 10% NaOH (Sigma-Aldrich, Darmstadt, Germany), the pH was adjusted to 3.8. The reaction mixture was incubated at 98 °C for 5–10 min. The radiochemical yield was analyzed by reversed-phase high-performance liquid chromatography (RP-HPLC) or reversed-phase thin-layer chromatography (RP-TLC, 60 RP-18 F254S, Sigma-Aldrich, Darmstadt, Germany) with 0.5 M ammonium acetate/methanol (1:1) as the mobile phase. The lipophilicity of the ^68Ga-labeled compounds was determined using the 2-phase system n-octanol and PBS.

[8] = tested on: LNCaP xenograft mouse model; test: Small-animal PET/MRI proof-of-concept, PSMA-positive xenograft; type: in vivo, mice
Protocol: (§5) Biodistribution and proof-of-concept imaging studies were performed in an experimental tumor xenograft model. A total of 5 × 10^6 cells of LNCaP (in 50% Matrigel; Becton Dickinson, Franklin Lakes, NJ, USA) were subcutaneously inoculated into the flank of 7- to 8-week-old male BALB/c nu/nu mice (Charles River, Wilmington, MA, USA/Janvier Labs, Le Genest-Saint-Isle, France).
(§6) For the proof-of-concept imaging study, 0.5 nmol of the ^68Ga-labeled compound in 0.9% NaCl (pH 7) were injected into the tail vein under anesthesia (2% isoflurane, n = 1). PET/MRI was performed with a 3T PET/MRI scanner (Bruker, Ettlingen, Germany). For MR imaging, a nontriggered localizer followed by a T1-weighted 3D scan was applied. For PET imaging, a dynamic scan for 60 min and a static scan (20 min) at 2 h p.i. was recorded. Image reconstruction was done with ParaVision software (dynamic scan: MLEM 0.5 mm algorithm, 12 iterations; static scan: OSEM 0.25 mm algorithm, 1 iteration), and data analysis was conducted in PMOD (version 3.7) with data converted to SUV images. After PET/MRI, the mice were sacrificed, and optical imaging of the subcutaneous tumor and organs of interest was performed with the Odyssey CLx system (LI-COR Biosciences, excitation wavelength 800 nm).

[9] = tested on: PC-3 tumor xenografts; test: Small-animal PET/MRI proof-of-concept, PSMA-negative xenograft; type: in vivo, mice; conditions: 0.5 nmol, PSMA-negative PC-3 xenograft, n = 1
Protocol: as §6

[10] = tested on: LNCaP-tumor bearing BALB/c nu/nu mice; test: Biodistribution (organ distribution) in tumor xenograft model; type: in vivo; conditions: 0.06 nmol; for Organ distribution Blood / Organ distribution Brain / Organ distribution Heart / Organ distribution Intestine / Organ distribution Kidney / Organ distribution Liver / Organ distribution Lung / Organ distribution Muscle / Organ distribution Spleen / Organ distribution Tumor: n=3
Protocol: as §5
For biodistribution studies, 60 pmol of ^68Ga-labeled PSMA-927 were injected into the tail vein (1–3 MBq, n = 3). The animals were sacrificed at 1 and at 2 h p.i., and organs of interest were dissected, blotted dry, and weighed. Finally, the radioactivity was measured using a gamma counter and calculated as % ID/g.

[11] = tested on: human serum albumin; set-up: method as in PMID 942422, PMID 11325049; conditions: cited from earlier work
[12] = 68Ga-labeled compounds, blockage with 500 µmol/L 2-PMPA, mean ± SD, n = 3

T1 sequence (Q04609 whole entry): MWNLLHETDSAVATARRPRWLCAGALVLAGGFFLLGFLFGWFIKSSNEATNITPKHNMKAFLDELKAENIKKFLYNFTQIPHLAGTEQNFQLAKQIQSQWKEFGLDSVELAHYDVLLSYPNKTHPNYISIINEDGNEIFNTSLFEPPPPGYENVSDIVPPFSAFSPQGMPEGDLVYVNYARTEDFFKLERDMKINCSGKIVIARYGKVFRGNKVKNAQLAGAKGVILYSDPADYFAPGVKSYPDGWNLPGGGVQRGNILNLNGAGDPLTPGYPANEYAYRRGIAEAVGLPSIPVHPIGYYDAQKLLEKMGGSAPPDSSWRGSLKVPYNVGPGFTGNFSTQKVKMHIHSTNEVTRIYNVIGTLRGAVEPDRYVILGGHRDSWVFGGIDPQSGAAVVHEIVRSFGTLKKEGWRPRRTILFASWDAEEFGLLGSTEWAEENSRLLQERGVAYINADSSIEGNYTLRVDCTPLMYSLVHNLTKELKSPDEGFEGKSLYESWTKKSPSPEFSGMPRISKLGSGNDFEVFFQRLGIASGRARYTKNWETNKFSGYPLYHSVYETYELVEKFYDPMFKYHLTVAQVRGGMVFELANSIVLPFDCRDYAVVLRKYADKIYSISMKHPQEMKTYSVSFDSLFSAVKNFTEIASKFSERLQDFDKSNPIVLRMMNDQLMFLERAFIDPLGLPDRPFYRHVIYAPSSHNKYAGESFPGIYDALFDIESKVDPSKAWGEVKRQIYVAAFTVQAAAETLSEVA

## CC1(C)C(=CC=C2CCCC(C=CC3=[N+](CCCCCC(=O)NCCCCC(NC(=O)CN4CCN(CC(=O)O)CCN(CC(=O)O)CCN(CC(=O)O)CC4)C(=O)NCC4CCC(C(=O)NC(Cc5ccc6ccccc6c5)C(=O)NCCCCC(NC(=O)NC(CCC(=O)O)C(=O)O)C(=O)O)CC4)c4ccc(S(=O)(=O)O)cc4C3(C)C)=C2Oc2ccc(S(=O)(=O)O)cc2)N(CCCCS(=O)(=O)O)c2ccc(S(=O)(=O)O)cc21 (stereo not drawn) [PSMA-927, Glu-urea-Lys-2-Nal-Chx-Lys(IRDye800CW)-DOTA]
[1]; Ki=IC50/(1+cradioligand/Kd)
  Ki: 0.0132 ± 0.00525 µM
[1]; radioligand 68Ga-PSMA-10, 0.75 nmol/L
  IC50: 0.0159 ± 0.00546 µM
[2]
  fluorescence signal increase: no significant fluorescence signal increase
[3]; [12]
  Specifically Cell Surface Bound: 25.51 ± 9.73 %AR/10^5 Cells
  Specifically Internalized: 27.64 ± 12.80 %AR/10^5 Cells
[4]
  cytotoxicity (cell count, confluency, frequency of cell division, cell cycle length): did not reveal any evidence of cytotoxicity
[5]
  absorption maximum: 778 nm
[5]; excitation at 710 nm
  emission maximum: 796 nm
[6]; PFA-fixed cells
  integrated fluorescence intensity fixed: 3021 ± 863 counts
[6]; live cells
  integrated fluorescence intensity live: 11,618 ± 5412 counts
[7]
  Lipophilicity logDpH 7.4 n-octanol/PBS: -2.96 ± 0.06

## CC1(C)C(=CC=C2CCCC(C=CC3=[N+](CCCCCC(=O)NCCCCC(NC(=O)CN4CCN(CC(=O)[O-])CCN(CC(=O)[O-])CCN(CC(=O)[O-])CC4)C(=O)NCC4CCC(C(=O)NC(Cc5ccc6ccccc6c5)C(=O)NCCCCC(NC(=O)NC(CCC(=O)O)C(=O)O)C(=O)O)CC4)c4ccc(S(=O)(=O)[O-])cc4C3(C)C)=C2Oc2ccc(S(=O)(=O)O)cc2)N(CCCCS(=O)(=O)O)c2ccc(S(=O)(=O)O)cc21.[68Ga+3] (stereo not drawn) [[^68Ga]Ga-PSMA-927, 68Ga-Glu-urea-Lys-2-Nal-Chx-Lys(IRDye800CW)-DOTA]
[8]; 0.5 nmol, PSMA-positive LNCaP xenograft, n = 1
  tumor uptake in PET/MRI: strong and specific tumor uptake
[8]; time activity curves, PET/MRI
  pharmacokinetic profile (clearance): rapid clearance from non-malignant tissue (heart, liver, muscle) via the renal pathway
[3]
  specific cell surface binding: 25.51 ± 9.73 %ID/10^5 LNCaP cells
  specific internalization rate: 27.64 ± 12.80 %ID/10^5 LNCaP cells
[9]
  tumor uptake in PET/MRI: lack of measurable uptake
[10]; 1 h p.i.
  Tumor-to-Organ ratio Blood: 3.69 ± 0.60
  Tumor-to-Organ ratio Brain: 57.84 ± 9.25
  Tumor-to-Organ ratio Heart: 8.57 ± 2.07
  Tumor-to-Organ ratio Intestine: 10.37 ± 2.47
  Tumor-to-Organ ratio Kidney: 0.06 ± 0.01
  Tumor-to-Organ ratio Liver: 4.51 ± 0.84
  Tumor-to-Organ ratio Lung: 2.84 ± 0.37
  Tumor-to-Organ ratio Muscle: 12.23 ± 1.39
  Tumor-to-Organ ratio Spleen: 1.76 ± 0.71
  Organ distribution Blood: 1.14 ± 0.14 %ID/g
  Organ distribution Brain: 0.07 ± 0.01 %ID/g
  Organ distribution Heart: 0.51 ± 0.10 %ID/g
  Organ distribution Intestine: 0.43 ± 0.12 %ID/g
  Organ distribution Kidney: 65.64 ± 6.60 %ID/g
  Organ distribution Liver: 0.95 ± 0.15 %ID/g
  Organ distribution Lung: 1.47 ± 0.14 %ID/g
  Organ distribution Muscle: 0.34 ± 0.03 %ID/g
  Organ distribution Spleen: 2.82 ± 1.19 %ID/g
  Organ distribution Tumor: 4.13 ± 0.15 %ID/g
[10]; 2 h p.i.
  Tumor-to-Organ ratio Blood: 7.58 ± 1.65
  Tumor-to-Organ ratio Brain: 29.37 ± 13.17
  Tumor-to-Organ ratio Heart: 14.79 ± 4.40
  Tumor-to-Organ ratio Intestine: 11.92 ± 5.17
  Tumor-to-Organ ratio Kidney: 0.13 ± 0.06
  Tumor-to-Organ ratio Liver: 7.80 ± 3.09
  Tumor-to-Organ ratio Lung: 6.11 ± 2.36
  Tumor-to-Organ ratio Muscle: 11.55 ± 5.94
  Tumor-to-Organ ratio Spleen: 3.60 ± 1.86
  Organ distribution Blood: 0.82 ± 0.23 %ID/g
  Organ distribution Brain: 0.24 ± 0.11 %ID/g
  Organ distribution Heart: 0.43 ± 0.14 %ID/g
  Organ distribution Intestine: 0.59 ± 0.26 %ID/g
  Organ distribution Kidney: 57.47 ± 23.83 %ID/g
  Organ distribution Liver: 0.87 ± 0.34 %ID/g
  Organ distribution Lung: 1.11 ± 0.42 %ID/g
  Organ distribution Muscle: 0.66 ± 0.30 %ID/g
  Organ distribution Spleen: 2.08 ± 0.90 %ID/g
  Organ distribution Tumor: 5.85 ± 0.91 %ID/g

## CC1(C)C(/C=C/C=C/C=C/C=C2\N(CCCCS(=O)(=O)O)c3ccc4ccccc4c3C2(C)C)=[N+](CCCCS(=O)(=O)[O-])c2ccc3ccccc3c21 [indocyanine green]
[11]
  human serum albumin binding: prone to human serum albumin binding
